In the NIST ThermoML archive (doi:10.1016/j.jct.2010.10.025):

Assay: xn = mol fraction of the nth substance listed
Conditions: 101 kPa, Liquid; for speed of sound: Sing-around technique in a fixed-path interferometer; for mass density: Vibrating tube method

CCCCCCCCCO [nonan-1-ol] + Cc1cccc(O)c1
Conditions	mass density, 293.15 K [kg/m3]	mass density, 313.15 K [kg/m3]	speed of sound, 293.15 K [m/s]	speed of sound, 313.15 K [m/s]
x2 = 0	827.704	813.877	1380.7	1314
x2 = 0.0696	837.032	823.074	1386.7	1319.2
x2 = 0.1336	845.992	831.904	1390.8	1323.6
x2 = 0.2038	856.282	842.048	1395.6	1328.8
x2 = 0.2679	866.185	851.815	1400.4	1333.8
x2 = 0.3231	875.133	860.644	1404.9	1338.4
x2 = 0.3971	887.768	873.113	1411.3	1345
x2 = 0.4653	900.156	885.348	1417.5	1351.6
x2 = 0.5405	914.757	899.778	1425.3	1359.6
x2 = 0.6082	928.851	913.714	1432.9	1367.1
x2 = 0.6786	944.571	929.281	1441.8	1376.3
x2 = 0.7459	960.755	945.321	1451.1	1386.2
x2 = 0.8167	979.083	963.512	1461.2	1397.7
x2 = 0.8892	999.352	983.643	1474.3	1410.7
x2 = 0.9459	1016.5	1000.7	1485	1422.1

Cc1ccccc1O [2-methylphenol] + CCCCCCCCCO
x1 = 1
Conditions	mass density [kg/m3]	speed of sound [m/s]
293.15 K	1045.69	1521.8
313.15 K	1028.14	1453.3

CCCCCCCCCO [nonan-1-ol] + Cc1ccc(O)cc1
x2 = 0
Conditions	mass density [kg/m3]	speed of sound [m/s]
293.15 K	827.704	1380.7
313.15 K	813.877	1314

CCCCCCCCCO [nonan-1-ol] + Cc1ccccc1O
Conditions	mass density, 293.15 K [kg/m3]	mass density, 313.15 K [kg/m3]	speed of sound, 293.15 K [m/s]	speed of sound, 313.15 K [m/s]
x2 = 0	827.704	813.877	1380.7	1314
x2 = 0.0747	838.281	824.298	1388	1320
x2 = 0.1411	848.105	833.982	1393.4	1325.4
x2 = 0.2087	858.578	844.312	1398.9	1330.9
x2 = 0.2614	867.121	852.733	1403.3	1335.5
x2 = 0.326	878.085	863.535	1408.9	1341.4
x2 = 0.4013	891.616	876.862	1416.1	1348.8
x2 = 0.4562	902.048	887.133	1422	1354.7
x2 = 0.5303	916.987	901.834	1430.5	1363.3
x2 = 0.5829	928.291	912.952	1437.3	1370
x2 = 0.645	942.416	926.834	1446.2	1378.7
x2 = 0.7171	960.1	944.211	1457.8	1389.8
x2 = 0.784	977.81	961.595	1470	1401.7
x2 = 0.8566	998.699	982.094	1485.3	1416.7
x2 = 0.9397	1024.88	1007.76	1505.2	1436.5

Cc1cccc(O)c1 [3-methylphenol] + CCCCCCCCCO
x1 = 1
Conditions	mass density [kg/m3]	speed of sound [m/s]
293.15 K	1033.99	1496.8
313.15 K	1018.06	1434.2

COc1ccccc1 [anisole] + CCCCCCCCCO
x1 = 1
Conditions	mass density [kg/m3]	speed of sound [m/s]
293.15 K	993.845	1427.3
313.15 K	974.966	1346.7

Cc1ccc(O)cc1 [4-methylphenol] + CCCCCCCCCO
Conditions	mass density, 293.15 K [kg/m3]	mass density, 313.15 K [kg/m3]	speed of sound, 293.15 K [m/s]	speed of sound, 313.15 K [m/s]
x1 = 0.0723	837.798	823.756	1387.3	1319.8
x1 = 0.1353	846.887	832.662	1392.7	1324.9
x1 = 0.2032	856.995	842.572	1398.2	1330.5
x1 = 0.2637	866.395	851.785	1403.2	1335.7
x1 = 0.3492	880.334	865.479	1410.3	1343
x1 = 0.4122	891.234	876.214	1415.5	1348.6
x1 = 0.4898	905.461	890.246	1422.7	1356.1
x1 = 0.5492	917.111	901.771	1428.7	1362.2
x1 = 0.6143	930.635	915.184	1436	1369.8
x1 = 0.6735	943.741	928.201	1443.4	1377.4
x1 = 0.7455	960.902	945.287	1453.2	1388.3
x1 = 0.8163	979.164	963.518	1464.5	1400
x1 = 0.8789	996.577	980.938	1476	1412.3
x1 = 0.9362	1013.65	998.054	1487.5	1424.4
x1 = 1	1033.99	1018.47	1502.2	1439.6

CCCCCCCCCO [nonan-1-ol] + COc1ccccc1
Conditions	mass density, 293.15 K [kg/m3]	mass density, 313.15 K [kg/m3]	speed of sound, 293.15 K [m/s]	speed of sound, 313.15 K [m/s]
x2 = 0	827.704	813.877	1380.7	1314
x2 = 0.0691	834.714	820.629	1379.8	1312
x2 = 0.1265	840.852	826.539	1379.1	1310.9
x2 = 0.2023	849.439	834.809	1378.5	1309.8
x2 = 0.2701	857.605	842.665	1378.4	1309
x2 = 0.335	865.942	850.682	1378.5	1308.5
x2 = 0.405	875.488	859.873	1379	1308.3
x2 = 0.4753	885.766	869.775	1380.2	1308.6
x2 = 0.5348	895.034	878.714	1381.6	1309.2
x2 = 0.6025	906.314	889.609	1384.2	1311.1
x2 = 0.6657	917.614	900.551	1387.5	1313.4
x2 = 0.7399	931.942	914.464	1392.7	1317.5
x2 = 0.8198	948.831	930.915	1400.4	1323.4
x2 = 0.8791	962.443	944.199	1407.4	1329
x2 = 0.9468	979.271	960.651	1417.5	1337.5
